Test system: Bcl-2/Bax ratio
Assay: Western blot, whole cell and mitochondrial fraction
Format: in vivo, mice
Conditions: 20 mg/kg ip 10 min after CCI
Protocol: Three sets of experiments were performed. The first set was to investigate the protective effects of salidroside. All animals were randomized into 1 of 3 groups (sham injury, CCI + vehicle, CCI + SALD 20). Surgery/injury, behavioral testing, and tissue analyses were performed by different individuals. Behavioral testing and tissue analyses were performed by individuals blinded to the treatment group. Salidroside (Cayman Chemical, Ann Arbor, MI, USA) dissolved in normal saline (0.25 mL) or a corresponding volume of vehicle (saline) was administered intraperitoneally 10 min following injury. Testing after injury was completed as follows: 1) behavioral testing at days 1, 4, 7, 14, 21, and 28 (n = 8–10 mice/group); 2) cresyl violet staining at day 28 (n = 9 mice/group); 3) histology, determination of brain water content, and western blot analysis at day 1 or 3 (n = 5–6 mice/group). To determine the optimal dose of salidroside, a pilot study was performed using 2 different doses (20 and 50 mg/kg) administered 10 min after injury, and neurological deficits and tissue damage were evaluated as the main outcomes. […] Protein concentration was determined by Bradford reagent spectrophotometrically at A595. […] The relative intensity of protein signals was normalized to the corresponding β-actin intensity and was quantified by densitometric analysis with the use of Image J software. […]

## OC[C@H]1O[C@@H](OCCc2ccc(O)cc2)[C@H](O)[C@@H](O)[C@@H]1O [SALD, salidroside]
Day 1, P<0.05
  mitochondrial Bcl-2/Bax ratio, % of the level in vehicle injured brains: 150.6%
Whole cell level
  whole cell Bcl-2/Bax ratio, slight increase versus vehicle: did not reach statistical significance
